These results are taken from US11084795B2, “CFTR regulators and methods of use thereof” (The Regents of the University of California, priority 2015, dated 2021).

The nature of data set [1]: In vitro metabolic stability in mouse liver microsomes. It counts as in vitro ADME. To be noted: NADPH. The method, then: CFTRact-J027 (5 μM) was incubated for specified times at 37° C. with mouse liver microsomes (1 mg protein/ml; Sigma-Aldrich) in potassium phosphate buffer (100 mM) containing 1 mM NADPH, as described. The mixture was then chilled on ice, and 0.5 ml of ice-cold ethyl acetate was added. Samples were centrifuged for 15 min at 3000 rpm, the supernatant evaporated to dryness, and the residue was dissolved in 100 μL mobile phase (acetonitrile:water, 3:1) for LC/MS and assayed as described above.
In vitro metabolic stability. CFTRact-J027 (5 μM) was incubated for specified times at 37° C. with mouse liver microsomes (1 mg protein/ml; Sigma-Aldrich) in potassium phosphate buffer (100 mM) containing 1 mM NADPH, as described. The mixture was then chilled on ice, and 0.5 ml of ice-cold ethyl acetate was added. Samples were centrifuged for 15 min at 3000 rpm, the supernatant evaporated to dryness, and the residue was dissolved in 100 μL mobile phase (acetonitrile:water, 3:1) for LC/MS and assayed as described above.
In vitro metabolic stability. Test compound (at 5 μM) was incubated for specified times at 37° C. with mouse liver microsomes (1 mg protein/ml; Sigma-Aldrich, St. Louis, Mo.) in potassium phosphate buffer containing 1 mM NADPH, as described. Following ethyl acetate extraction, non-metabolized parent compound was assayed by LC/MS.
For orientation: Microsomes from liver hold many membrane-bound enzymes, among them those of drug oxidation.

In a further data set the test system is whole-gut transit. Description: Whole-gut transit time in mice. In kind it is in vivo, mouse. Here is the method: Whole-gut transit time was determined using an orally administered marker (200 μL, 5% Evans Blue, 5% gum Arabic) and measuring the time of its appearance in stool. Mice were administered loperamide and CFTRact-J027 (10 mg/kg) or vehicle intraperitoneally at zero time. For ex vivo contractility measurements, mice were euthanized by avertin overdose (200 mg/kg, 2,2,2-tribromethanol, Sigma-Aldrich) and ileum and colon segments of ˜2 cm length were isolated and washed with Krebs-Henseleit buffer. The ends of the intestinal segments were tied, connected to a force transducer (Biopac Systems, Goleta, Calif., USA) and tissues were transferred to an organ chamber (Biopac Systems) containing Krebs-Henseleit buffer at 37° C. aerated with 95% O2, 5% CO2. Ileum and colon were stabilized for 60 min with resting tensions of 0.5 and 0.2 g respectively, and solutions were changed every 15 min. Effects of CFTRact-J027 on baseline and loperamide-suppressed isometric intestinal contractions were recorded.
In vivo intestinal transit and ex vivo intestinal contractility. Whole-gut transit time was determined using an orally administered marker (200 μL, 5% Evans Blue, 5% gum Arabic) and measuring the time of its appearance in stool. […] Effects of CFTRact-J027 on baseline and loperamide-suppressed isometric intestinal contractions were recorded.

Data set [2] in a line: Pharmacokinetics in mice (plasma LC/MS). It counts as in vivo, mouse. The method, then:
(§1) Blood was collected at 15, 30, 60, 150, 240 and 360 min after treatment by orbital puncture and centrifuged at 5000 rpm for 15 min to separate plasma. Plasma samples (60 μL) were mixed with 300 μL acetonitrile and centrifuged at 13000 rpm for 20 min, and 90 μL of the supernatant was used for LC/MS. The solvent system consisted of a linear gradient from 5 to 95% acetonitrile over 16 min (0.2 ml/min flow). Mass spectra was acquired on a mass spectrometer (Waters 2695 and Micromass ZQ) using electrospray (+) ionization, mass ranging from 100 to 1500 Da, cone voltage 40 V. Calibration standards were prepared in plasma from untreated mice to which known amounts of CFTRact-J027 were added.
as §1, with “Pharmacokinetics. […] Blood” for “Blood”

The nature of data set [3]: Compound accumulation in systemic tissues after 14 days topical dosing. To be noted: two weeks of three times per day topical dosing. It counts as in vivo, mouse.
The target in a further data set is human wildtype CFTR (Homo sapiens, UniProt P13569). The data set can be described thus: Fluorescence plate reader assay of iodide influx in FRT cells co-expressing CFTR and YFP halide sensor. To be noted: synthesized compounds, full dose-response study; 125 nM forskolin.
human wildtype CFTR, sequence (P13569 whole entry): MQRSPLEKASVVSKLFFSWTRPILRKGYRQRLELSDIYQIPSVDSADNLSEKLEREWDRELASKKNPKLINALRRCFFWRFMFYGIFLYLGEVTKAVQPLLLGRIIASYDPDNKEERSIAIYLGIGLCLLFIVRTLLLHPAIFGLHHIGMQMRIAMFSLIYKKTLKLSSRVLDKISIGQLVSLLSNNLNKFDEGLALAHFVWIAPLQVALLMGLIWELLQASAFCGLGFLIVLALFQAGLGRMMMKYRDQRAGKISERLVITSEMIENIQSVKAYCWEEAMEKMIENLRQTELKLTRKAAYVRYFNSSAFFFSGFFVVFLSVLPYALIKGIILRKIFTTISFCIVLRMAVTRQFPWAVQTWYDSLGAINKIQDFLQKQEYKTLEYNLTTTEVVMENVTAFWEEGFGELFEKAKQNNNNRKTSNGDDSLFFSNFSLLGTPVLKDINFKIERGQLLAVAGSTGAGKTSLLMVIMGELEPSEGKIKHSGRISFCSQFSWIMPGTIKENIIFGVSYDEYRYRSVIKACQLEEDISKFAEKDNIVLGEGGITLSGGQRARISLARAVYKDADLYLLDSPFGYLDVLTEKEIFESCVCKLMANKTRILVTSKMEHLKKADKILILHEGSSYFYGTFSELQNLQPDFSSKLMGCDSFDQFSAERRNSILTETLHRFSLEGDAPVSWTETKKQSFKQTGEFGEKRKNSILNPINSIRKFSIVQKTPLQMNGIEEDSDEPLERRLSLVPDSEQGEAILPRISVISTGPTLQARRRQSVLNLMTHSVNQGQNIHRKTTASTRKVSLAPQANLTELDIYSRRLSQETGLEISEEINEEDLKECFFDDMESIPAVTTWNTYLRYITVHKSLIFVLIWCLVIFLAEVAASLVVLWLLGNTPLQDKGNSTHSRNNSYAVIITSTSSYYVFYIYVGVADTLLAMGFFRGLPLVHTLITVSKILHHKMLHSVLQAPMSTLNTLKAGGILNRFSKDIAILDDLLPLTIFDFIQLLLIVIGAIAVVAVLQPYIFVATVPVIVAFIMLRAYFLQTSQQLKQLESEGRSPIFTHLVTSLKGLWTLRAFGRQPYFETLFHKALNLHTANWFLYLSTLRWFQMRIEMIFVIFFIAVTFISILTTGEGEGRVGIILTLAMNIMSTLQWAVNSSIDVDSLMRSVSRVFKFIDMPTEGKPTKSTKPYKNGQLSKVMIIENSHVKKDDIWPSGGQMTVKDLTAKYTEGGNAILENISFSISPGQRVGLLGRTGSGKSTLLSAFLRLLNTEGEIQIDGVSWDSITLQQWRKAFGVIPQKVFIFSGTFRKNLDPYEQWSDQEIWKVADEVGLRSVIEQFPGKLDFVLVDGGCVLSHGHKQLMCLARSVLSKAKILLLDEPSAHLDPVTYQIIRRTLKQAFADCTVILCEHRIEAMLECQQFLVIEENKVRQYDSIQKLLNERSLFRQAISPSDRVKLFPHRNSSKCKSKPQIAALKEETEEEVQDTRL
The nature of data set [4]: In vitro metabolic stability in human liver microsomes. It counts as in vitro ADME. Here is the method: To study gastric acid stability CFTRact-J027 (10 μM) was dissolved in simulated gastric fluid (0.2 NaCl, 0.7% HCl, pH 2) and incubated for 3 h at 37° C. To study in vitro metabolic stability CFTRact-J027 (5 μM) was incubated for specified times at 37° C. with human liver microsomes (1 mg protein/ml; Sigma-Aldrich) in potassium phosphate buffer (100 mM) containing 1 mM NADPH. After specified incubation periods the mixtures were chilled on ice, and 0.5 ml of ice-cold ethyl acetate was added. Samples were centrifuged for 15 min at 3000 rpm, the supernatants evaporated to dryness, and the residues were dissolved in 100 μL mobile phase (acetonitrile:water, 3:1) and assayed by liquid chromatography mass spectrometry (LC/MS). The solvent system consisted of a linear gradient from 5 to 95% acetonitrile over 16 min (0.2 ml/min flow). Mass spectra were acquired on a mass spectrometer (Waters 2695 and Micromass ZQ, Milford, Mass.) using electrospray (+) ionization, mass ranging from 100 to 1500 Da, cone voltage 40 V.

The subject of a further data set is scopolamine-treated mice. The data set can be described thus: Scopolamine-induced mouse model of acute constipation. In kind it is in vivo. The method, then:
Control mice were treated with vehicle only.

Entries after “also recorded” stand apart in the source; their conditions may differ.

Usually half-life stands for the time needed for the level to fall by half in the phase considered. By EC50 is commonly meant the midpoint of the concentration-response curve. Low readings indicate higher potency in that assay, high ones lower potency in that assay. For `Nc1ccc([N+](=O)[O-])cc1-c1nc2ccccc2n(Cc2ccccc2)c1=O` [CFTRact-J027, 3-(2-amino-5-nitrophenyl)-1-benzylquinoxalin-2(1H)-one], in data set [1] (mouse hepatic microsomes), the “compound metabolized at 60 min” value is given as roughly 100%. In data set [1] (mouse liver microsomes), the “original compound remaining at 60 min” value is recorded as 7%. Also, the half-life at 5 μM was 21 min in data set [1] (mouse, liver microsomes, 5 μM, read-out: elimination half-life in mouse liver microsomes) and roughly 35 min in data set [4] (human, liver microsomes, 5 μM, NADPH, read-out: elimination half-life in human hepatic microsomes). In addition, the “whole-gut transit time in cystic fibrosis mice” value in the data set on whole-gut transit (cystic fibrosis mice) is “no effect on whole-gut transit time”. The whole-gut transit time result in the data set with whole-gut transit (loperamide-treated wild-type mice, 10 mg/kg ip) is listed as “normalized”. For the same compound, the “serum concentration at 150 min” value in data set [2] (10 mg/kg ip) is reported as “undetectable”. The oral bioavailability result in data set [2] (10 mg/kg oral) was “very low bioavailability; also recorded: minimal bioavailability”. Further, in data set [2] (10 mg/kg oral), the “serum concentration at other time points” value was “undetectable”. Besides, the half-life in data set [2] (female, CD1, mouse, serum, 10 mg/kg ip, read-out: serum elimination half-life) amounted to 16 min. Moreover, the concentration at 30 min in data set [2] (female, CD1, mouse, serum, 10 mg/kg oral) was determined as 0.18 µM. Besides, in data set [3], the “amount in mouse blood, brain, liver and kidney (limit of detection)” value was less than 700 fmol. The EC50 on human wildtype CFTR is 0.2 µM. The “compound remaining at 60 min” value in data set [4] (human hepatic microsomes) was 34%. Moreover, in the data set with scopolamine-treated mice (10 mg/kg ip 1 h after loperamide or scopolamine), the “efficacy, ip after development of constipation” value is reported as “effective”. Further, in the data set with scopolamine-treated mice (10 mg/kg po), the “stool parameters, oral 1 h prior to scopolamine” value was “normalization of stool parameters”. Further, in the data set with scopolamine-treated mice (10 mg/kg po 1 h after loperamide or scopolamine), the “efficacy, oral after development of constipation” value is given as “not effective”. Besides, the “stool output, pellet number and water content compared to lubiprostone and linaclotide” value with scopolamine-treated mice (J027 10 mg/kg vs 0.5 mg/kg comparators, oral) was “more effective in increasing stool output, pellet number and water content”.
